PubChem BioAssay AID1918934 (Molecular Pharmacology Branch, DTP, NCI, 2023)

Tested on: 292921-168-R-J2-PDC complex spheroid viability
Assay: Anticancer human tumor 292921-168-R-J2-PDC patient-derived pancreatic carcinoma cell line growth inhibition
Conditions: for IC50: curve of first compound; for viability, T/C: stronger effect = lower value
Outline: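 Complex spheroids of tumor cells with HUVEC and human MSCs, exposed to iadademstat combined with other agents. Each agent tested in half-log steps from near clinical Cmax (else 10 microM top), DMSO ≤0.25%.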

[1] = second compound 0.1 µM, first compound 0.000316 µM
[2] = second compound 0.1 µM, first compound 0.001 µM
[3] = second compound 0.1 µM, first compound 0.00316 µM
[4] = second compound 0.1 µM, first compound 0.01 µM
[5] = second compound 0.1 µM, first compound 0.0316 µM
[6] = second compound 0.1 µM, first compound 0.1 µM
[7] = second compound 0.316 µM, first compound 0.000316 µM
[8] = second compound 0.316 µM, first compound 0.001 µM
[9] = second compound 0.316 µM, first compound 0.00316 µM
[10] = second compound 0.316 µM, first compound 0.01 µM
[11] = second compound 0.316 µM, first compound 0.0316 µM
[12] = second compound 0.316 µM, first compound 0.1 µM
[13] = second compound 1 µM, first compound 0.000316 µM
[14] = second compound 1 µM, first compound 0.001 µM
[15] = second compound 1 µM, first compound 0.00316 µM
[16] = second compound 1 µM, first compound 0.01 µM
[17] = second compound 1 µM, first compound 0.0316 µM
[18] = second compound 1 µM, first compound 0.1 µM
[19] = second compound 3.16 µM, first compound 0.000316 µM
[20] = second compound 3.16 µM, first compound 0.001 µM
[21] = second compound 3.16 µM, first compound 0.00316 µM
[22] = second compound 3.16 µM, first compound 0.01 µM
[23] = second compound 3.16 µM, first compound 0.0316 µM
[24] = second compound 3.16 µM, first compound 0.1 µM
[25] = second compound 10 µM, first compound 0.000316 µM
[26] = second compound 10 µM, first compound 0.001 µM
[27] = second compound 10 µM, first compound 0.00316 µM
[28] = second compound 10 µM, first compound 0.01 µM
[29] = second compound 10 µM, first compound 0.0316 µM
[30] = second compound 10 µM, first compound 0.1 µM
[31] = second compound 0.1 µM, first compound 0.00949 µM
[32] = second compound 0.1 µM, first compound 0.03 µM
[33] = second compound 0.1 µM, first compound 0.0949 µM
[34] = second compound 0.1 µM, first compound 0.3 µM
[35] = second compound 0.1 µM, first compound 0.949 µM
[36] = second compound 0.1 µM, first compound 3 µM
[37] = second compound 0.316 µM, first compound 0.00949 µM
[38] = second compound 0.316 µM, first compound 0.03 µM
[39] = second compound 0.316 µM, first compound 0.0949 µM
[40] = second compound 0.316 µM, first compound 0.3 µM
[41] = second compound 0.316 µM, first compound 0.949 µM
[42] = second compound 0.316 µM, first compound 3 µM
[43] = second compound 1 µM, first compound 0.00949 µM
[44] = second compound 1 µM, first compound 0.03 µM
[45] = second compound 1 µM, first compound 0.0949 µM
[46] = second compound 1 µM, first compound 0.3 µM
[47] = second compound 1 µM, first compound 0.949 µM
[48] = second compound 1 µM, first compound 3 µM
[49] = second compound 3.16 µM, first compound 0.00949 µM
[50] = second compound 3.16 µM, first compound 0.03 µM
[51] = second compound 3.16 µM, first compound 0.0949 µM
[52] = second compound 3.16 µM, first compound 0.3 µM
[53] = second compound 3.16 µM, first compound 0.949 µM
[54] = second compound 3.16 µM, first compound 3 µM
[55] = second compound 10 µM, first compound 0.00949 µM
[56] = second compound 10 µM, first compound 0.03 µM
[57] = second compound 10 µM, first compound 0.0949 µM
[58] = second compound 10 µM, first compound 0.3 µM
[59] = second compound 10 µM, first compound 0.949 µM
[60] = second compound 10 µM, first compound 3 µM
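Note: seven day compound exposure before luminescent viability read.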
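Throughout, for viability, T/C: 100% = DMSO vehicle control wells.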

CC(C)CC(NC(=O)C(Cc1ccccc1)NC(=O)c1cnccn1)B(O)O (stereo not given) + NC1CC1c1ccc(-c2cccc(O)c2)cc1
IC50 (second compound 0.1 µM): < 0.316 nM
IC50 (second compound 0.316 µM): < 0.316 nM
IC50 (second compound 1 µM): < 0.316 nM
IC50 (second compound 3.16 µM): < 0.316 nM
IC50 (second compound 10 µM): < 0.316 nM
viability, T/C [1]: 21.2%
viability, T/C [2]: 1.11%
viability, T/C [3]: 0.47%
viability, T/C [4]: 0.39%
viability, T/C [5]: 0.14%
viability, T/C [6]: 0.17%
viability, T/C [7]: 18.8%
viability, T/C [8]: 1.91%
viability, T/C [9]: 0.24%
viability, T/C [10]: 0.18%
viability, T/C [11]: 0.18%
viability, T/C [12]: 0.17%
viability, T/C [13]: 16.9%
viability, T/C [14]: 1.68%
viability, T/C [15]: 0.21%
viability, T/C [16]: 0.19%
viability, T/C [17]: 0.22%
viability, T/C [18]: 0.17%
viability, T/C [19]: 15.4%
viability, T/C [20]: 0.61%
viability, T/C [21]: 0.17%
viability, T/C [22]: 0.14%
viability, T/C [23]: 0.46%
viability, T/C [24]: 0.31%
viability, T/C [25]: 12.3%
viability, T/C [26]: 0.8%
viability, T/C [27]: 0.29%
viability, T/C [28]: 0.54%
viability, T/C [29]: 0.45%
viability, T/C [30]: 0.25%

CC(C)CC(NC(=O)CNC(=O)c1cc(Cl)ccc1Cl)B1OC(=O)CC(CC(=O)O)(C(=O)O)O1 (stereo not given) + NC1CC1c1ccc(-c2cccc(O)c2)cc1
IC50 (second compound 0.1 µM): 5.69 nM
IC50 (second compound 0.316 µM): 5.54 nM
IC50 (second compound 1 µM): 4.78 nM
IC50 (second compound 3.16 µM): 4.64 nM
IC50 (second compound 10 µM): 3.67 nM
viability, T/C [1]: 88.2%
viability, T/C [2]: 93.4%
viability, T/C [3]: 81.5%
viability, T/C [4]: 19.6%
viability, T/C [5]: 3.61%
viability, T/C [6]: 1.34%
viability, T/C [7]: 80%
viability, T/C [8]: 84.3%
viability, T/C [9]: 80.4%
viability, T/C [10]: 17.9%
viability, T/C [11]: 3.08%
viability, T/C [12]: 1.87%
viability, T/C [13]: 66.2%
viability, T/C [14]: 74%
viability, T/C [15]: 68.2%
viability, T/C [16]: 17.2%
viability, T/C [17]: 3.17%
viability, T/C [18]: 1.85%
viability, T/C [19]: 70.7%
viability, T/C [20]: 71.2%
viability, T/C [21]: 67.8%
viability, T/C [22]: 14.5%
viability, T/C [23]: 2.89%
viability, T/C [24]: 1.44%
viability, T/C [25]: 61.6%
viability, T/C [26]: 67.1%
viability, T/C [27]: 55.4%
viability, T/C [28]: 11.8%
viability, T/C [29]: 2.07%
viability, T/C [30]: 0.75%

COc1cc(Nc2ncc3c(n2)-c2ccc(Cl)cc2C(c2c(F)cccc2OC)=NC3)ccc1C(=O)O + NC1CC1c1ccc(-c2cccc(O)c2)cc1
IC50 (second compound 0.1 µM): < 3.16 nM
IC50 (second compound 0.316 µM): < 3.16 nM
IC50 (second compound 1 µM): < 3.16 nM
IC50 (second compound 3.16 µM): < 3.16 nM
IC50 (second compound 10 µM): < 3.16 nM
viability, T/C [3]: 36.8%
viability, T/C [4]: 40.9%
viability, T/C [5]: 37.5%
viability, T/C [6]: 31.9%
viability, T/C (second compound 0.1 µM, first compound 0.316 µM): 24.1%
viability, T/C (second compound 0.1 µM, first compound 1 µM): 16.4%
viability, T/C [9]: 39.2%
viability, T/C [10]: 44.5%
viability, T/C [11]: 37.5%
viability, T/C [12]: 31.4%
viability, T/C (second compound 0.316 µM, first compound 0.316 µM): 24.8%
viability, T/C (second compound 0.316 µM, first compound 1 µM): 16.5%
viability, T/C [15]: 37.2%
viability, T/C [16]: 35.9%
viability, T/C [17]: 34.6%
viability, T/C [18]: 26%
viability, T/C (second compound 1 µM, first compound 0.316 µM): 20.2%
viability, T/C (second compound 1 µM, first compound 1 µM): 15.9%
viability, T/C [21]: 30.4%
viability, T/C [22]: 36.5%
viability, T/C [23]: 35.2%
viability, T/C [24]: 28.1%
viability, T/C (second compound 3.16 µM, first compound 0.316 µM): 23.7%
viability, T/C (second compound 3.16 µM, first compound 1 µM): 15%
viability, T/C [27]: 34.2%
viability, T/C [28]: 32.7%
viability, T/C [29]: 34.2%
viability, T/C [30]: 28%
viability, T/C (second compound 10 µM, first compound 0.316 µM): 19.4%
viability, T/C (second compound 10 µM, first compound 1 µM): 14.9%

NS(=O)(=O)OCC1CC(n2ccc3c(NC4CCc5ccccc54)ncnc32)CC1O (stereo not given) + NC1CC1c1ccc(-c2cccc(O)c2)cc1
IC50 (second compound 0.1 µM): 17.4 nM
IC50 (second compound 0.316 µM): 17.3 nM
IC50 (second compound 1 µM): 17.4 nM
IC50 (second compound 3.16 µM): 17.9 nM
IC50 (second compound 10 µM): 16.4 nM
viability, T/C [31]: 87.4%
viability, T/C [32]: 16.4%
viability, T/C [33]: 5.35%
viability, T/C [34]: 2.15%
viability, T/C [35]: 2.62%
viability, T/C [36]: 1.96%
viability, T/C [37]: 86.8%
viability, T/C [38]: 16%
viability, T/C [39]: 5.14%
viability, T/C [40]: 2.21%
viability, T/C [41]: 1.99%
viability, T/C [42]: 2.75%
viability, T/C [43]: 89.1%
viability, T/C [44]: 14.7%
viability, T/C [45]: 4.08%
viability, T/C [46]: 2.39%
viability, T/C [47]: 2.73%
viability, T/C [48]: 2.93%
viability, T/C [49]: 91%
viability, T/C [50]: 16.4%
viability, T/C [51]: 5.76%
viability, T/C [52]: 2.49%
viability, T/C [53]: 3.17%
viability, T/C [54]: 2.38%
viability, T/C [55]: 76.1%
viability, T/C [56]: 21.5%
viability, T/C [57]: 5.5%
viability, T/C [58]: 2.88%
viability, T/C [59]: 2.28%
viability, T/C [60]: 2.43%

Nc1ccccc1NC(=O)c1ccc(CNC(=O)OCc2cccnc2)cc1 + NC1CC1c1ccc(-c2cccc(O)c2)cc1
IC50 (second compound 0.1 µM): 29.5 nM
IC50 (second compound 0.316 µM): < 9.49 nM
IC50 (second compound 1 µM): 12.4 nM
IC50 (second compound 3.16 µM): < 9.49 nM
IC50 (second compound 10 µM): < 9.49 nM
viability, T/C [31]: 60.9%
viability, T/C [32]: 49%
viability, T/C [33]: 34.9%
viability, T/C [34]: 19.9%
viability, T/C [35]: 4.91%
viability, T/C [36]: 0.29%
viability, T/C [37]: 48.2%
viability, T/C [38]: 42.1%
viability, T/C [39]: 31.2%
viability, T/C [40]: 19.6%
viability, T/C [41]: 4.68%
viability, T/C [42]: 0.3%
viability, T/C [43]: 53.6%
viability, T/C [44]: 38.6%
viability, T/C [45]: 33.7%
viability, T/C [46]: 18.6%
viability, T/C [47]: 4.33%
viability, T/C [48]: 0.19%
viability, T/C [49]: 47.7%
viability, T/C [50]: 38.8%
viability, T/C [51]: 29.6%
viability, T/C [52]: 18.9%
viability, T/C [53]: 3.78%
viability, T/C [54]: 0.25%
viability, T/C [55]: 41.9%
viability, T/C [56]: 43.8%
viability, T/C [57]: 30.1%
viability, T/C [58]: 19%
viability, T/C [59]: 3.97%
viability, T/C [60]: 0.74%

O=C(C=Cc1cccc(S(=O)(=O)Nc2ccccc2)c1)NO + NC1CC1c1ccc(-c2cccc(O)c2)cc1
IC50 (second compound 0.1 µM): 29.8 nM
IC50 (second compound 0.316 µM): < 9.49 nM
IC50 (second compound 1 µM): 11.7 nM
IC50 (second compound 3.16 µM): 11.9 nM
IC50 (second compound 10 µM): < 9.49 nM
viability, T/C [31]: 59.3%
viability, T/C [32]: 48.9%
viability, T/C [33]: 34.9%
viability, T/C [34]: 25.2%
viability, T/C [35]: 1.42%
viability, T/C [36]: 0.23%
viability, T/C [37]: 52.5%
viability, T/C [38]: 42.6%
viability, T/C [39]: 38.6%
viability, T/C [40]: 24.9%
viability, T/C [41]: 1.57%
viability, T/C [42]: 0.46%
viability, T/C [43]: 54.4%
viability, T/C [44]: 43.4%
viability, T/C [45]: 40.3%
viability, T/C [46]: 22.8%
viability, T/C [47]: 0.74%
viability, T/C [48]: 0.53%
viability, T/C [49]: 52.1%
viability, T/C [50]: 45.7%
viability, T/C [51]: 35.7%
viability, T/C [52]: 22.8%
viability, T/C [53]: 0.66%
viability, T/C [54]: 0.11%
viability, T/C [55]: 45.2%
viability, T/C [56]: 36.9%
viability, T/C [57]: 31.8%
viability, T/C [58]: 18.7%
viability, T/C [59]: 0.41%
viability, T/C [60]: 0.15%
